≈ marks a conversion by molar mass, not a printed value. Square brackets hold non-standard residues; d marks the D form. Peptide text beside a SMILES is read from it.
Key:
Candida albicans = experiment: Antifungal activity against Candida albicans using twofold microbroth dilution technique.; assay type: functional, organism-based
Cryptococcus neoformans = experiment: Lowest concentration of compound that substantially inhibited the growth of Cryptococcus neoformans after 48 hr; assay type: functional

IC50 (Candida albicans) [µM] | MIC (Cryptococcus neoformans) [µM] | Compound
14.4 | – | CC[C@H](C)[C@H](NC(=O)[C@@H](Cc1ccccc1)NC(=O)[C@@H](Cc1c[nH]c2ccccc12)NC(=O)[C@@H](N)CCCN=C(N)N)C(=O)N[C@H](Cc1ccccc1)C(=O)N[C@@H](CCCCN)C(N)=O [listing 1 of 2 here]
30.2 | – | CC[C@H](C)[C@H](NC(=O)[C@@H](Cc1ccccc1)NC(=O)[C@@H](Cc1c[nH]c2ccccc12)NC(=O)[C@@H](N)CCCN=C(N)N)C(=O)N[C@H](Cc1ccccc1)C(=O)N[C@@H](CCC(N)=O)C(N)=O [listing 1 of 2 here]
– | 6.71 (≈ 6.19 µg/mL) | CC[C@H](C)[C@H](NC(=O)[C@@H](Cc1ccccc1)NC(=O)[C@@H](Cc1c[nH]c2ccccc12)NC(=O)[C@@H](N)CCCN=C(N)N)C(=O)N[C@H](Cc1ccccc1)C(=O)N[C@@H](CCCN=C(N)N)C(N)=O [listing 1 of 2 here]
> 28.4 | – | CC[C@H](C)[C@H](NC(=O)[C@@H](Cc1ccccc1)NC(=O)[C@@H](Cc1c[nH]c2ccccc12)NC(=O)[C@@H](N)CCCN=C(N)N)C(=O)N[C@H](Cc1ccccc1)C(=O)N[C@H](C(N)=O)C(C)C [listing 1 of 2 here]
13.7 | – | CC[C@H](C)[C@H](NC(=O)[C@@H](Cc1ccccc1)NC(=O)[C@@H](Cc1c[nH]c2ccccc12)NC(=O)[C@@H](N)CCCN=C(N)N)C(=O)N[C@H](Cc1ccccc1)C(=O)N[C@@H](Cc1ccccc1)C(N)=O [listing 1 of 2 here]
– | 6.85 (≈ 6.19 µg/mL) | CC[C@H](C)[C@H](NC(=O)[C@@H](Cc1ccccc1)NC(=O)[C@@H](Cc1c[nH]c2ccccc12)NC(=O)[C@@H](N)CCCN=C(N)N)C(=O)N[C@H](Cc1ccccc1)C(=O)N[C@@H](Cc1c[nH]cn1)C(N)=O (H-R[dW][dF]I[dF]H-NH2) [listing 2 of 2 here]
– | 55.8 (≈ 50 µg/mL) | CC[C@H](C)[C@H](NC(=O)[C@@H](Cc1ccccc1)NC(=O)[C@@H](Cc1c[nH]c2ccccc12)NC(=O)[C@@H](N)CCCN=C(N)N)C(=O)N[C@H](Cc1ccccc1)C(=O)N[C@@H](CCC(=O)O)C(N)=O [listing 1 of 2 here]
– | 13.7 (≈ 12.5 µg/mL) | CC[C@H](C)[C@H](NC(=O)[C@@H](Cc1ccccc1)NC(=O)[C@@H](Cc1c[nH]c2ccccc12)NC(=O)[C@@H](N)CCCN=C(N)N)C(=O)N[C@H](Cc1ccccc1)C(=O)N[C@@H](Cc1ccccc1)C(N)=O [listing 2 of 2 here]
– | 7.04 (≈ 6.2 µg/mL) | CC[C@H](C)[C@H](NC(=O)[C@@H](Cc1ccccc1)NC(=O)[C@@H](Cc1c[nH]c2ccccc12)NC(=O)[C@@H](N)CCCN=C(N)N)C(=O)N[C@H](Cc1ccccc1)C(=O)N[C@@H](CC(C)C)C(N)=O [listing 2 of 2 here]
– | 55.9 (≈ 50 µg/mL) | CC[C@H](C)[C@H](NC(=O)[C@@H](Cc1ccccc1)NC(=O)[C@@H](Cc1c[nH]c2ccccc12)NC(=O)[C@@H](N)CCCN=C(N)N)C(=O)N[C@H](Cc1ccccc1)C(=O)N[C@@H](CCC(N)=O)C(N)=O [listing 2 of 2 here]
– | 6.92 (≈ 6.19 µg/mL) | CC[C@H](C)[C@H](NC(=O)[C@@H](Cc1ccccc1)NC(=O)[C@@H](Cc1c[nH]c2ccccc12)NC(=O)[C@@H](N)CCCN=C(N)N)C(=O)N[C@H](Cc1ccccc1)C(=O)N[C@@H](CCCCN)C(N)=O [listing 2 of 2 here]
– | 13.4 (≈ 12.5 µg/mL) | CC[C@H](C)[C@H](NC(=O)[C@@H](Cc1ccccc1)NC(=O)[C@@H](Cc1c[nH]c2ccccc12)NC(=O)[C@@H](N)CCCN=C(N)N)C(=O)N[C@H](Cc1ccccc1)C(=O)N[C@@H](Cc1ccc(O)cc1)C(N)=O [listing 2 of 2 here]
> 14.9 | – | CC[C@H](C)[C@H](NC(=O)[C@@H](Cc1ccccc1)NC(=O)[C@@H](Cc1c[nH]c2ccccc12)NC(=O)[C@@H](N)CCCN=C(N)N)C(=O)N[C@H](Cc1ccccc1)C(=O)N[C@@H](CC(N)=O)C(N)=O [listing 2 of 2 here]
> 14.9 | – | CC[C@H](C)[C@H](NC(=O)[C@@H](Cc1ccccc1)NC(=O)[C@@H](Cc1c[nH]c2ccccc12)NC(=O)[C@@H](N)CCCN=C(N)N)C(=O)N[C@H](Cc1ccccc1)C(=O)N[C@@H](C)C(N)=O [listing 1 of 2 here]
45.6 | – | CC[C@H](C)[C@H](NC(=O)[C@@H](Cc1ccccc1)NC(=O)[C@@H](NC(=O)[C@@H](Cc1ccccc1)NC(=O)[C@@H](Cc1c[nH]c2ccccc12)NC(=O)[C@@H](N)CCCN=C(N)N)[C@@H](C)CC)C(N)=O [listing 1 of 2 here]
– | 14.9 (≈ 12.5 µg/mL) | CC[C@H](C)[C@H](NC(=O)[C@@H](Cc1ccccc1)NC(=O)[C@@H](Cc1c[nH]c2ccccc12)NC(=O)[C@@H](N)CCCN=C(N)N)C(=O)N[C@H](Cc1ccccc1)C(=O)N[C@@H](C)C(N)=O [listing 2 of 2 here]
– | 27.8 (≈ 25 µg/mL) | CC[C@H](C)[C@H](NC(=O)[C@@H](Cc1ccccc1)NC(=O)[C@@H](Cc1c[nH]c2ccccc12)NC(=O)[C@@H](N)CCCN=C(N)N)C(=O)N[C@H](Cc1ccccc1)C(=O)N[C@@H](CCSC)C(N)=O [listing 2 of 2 here]
51.4 | – | CC[C@H](C)[C@H](NC(=O)[C@@H](Cc1ccccc1)NC(=O)[C@@H](Cc1c[nH]c2ccccc12)NC(=O)[C@@H](N)CCCN=C(N)N)C(=O)N[C@H](Cc1ccccc1)C(=O)N1CCC[C@H]1C(N)=O [listing 2 of 2 here]
– | 14.4 (≈ 12.5 µg/mL) | CC[C@H](C)[C@H](NC(=O)[C@@H](Cc1ccccc1)NC(=O)[C@@H](Cc1c[nH]c2ccccc12)NC(=O)[C@@H](N)CCCN=C(N)N)C(=O)N[C@H](Cc1ccccc1)C(=O)N[C@H](C(N)=O)[C@@H](C)O [listing 1 of 2 here]
– | 13.1 (≈ 12.5 µg/mL) | CC[C@H](C)[C@H](NC(=O)[C@@H](Cc1ccccc1)NC(=O)[C@@H](Cc1c[nH]c2ccccc12)NC(=O)[C@@H](N)CCCN=C(N)N)C(=O)N[C@H](Cc1ccccc1)C(=O)N[C@@H](Cc1c[nH]c2ccccc12)C(N)=O [listing 2 of 2 here]
– | 14.4 (≈ 12.5 µg/mL) | CC[C@H](C)[C@H](NC(=O)[C@@H](Cc1ccccc1)NC(=O)[C@@H](Cc1c[nH]c2ccccc12)NC(=O)[C@@H](N)CCCN=C(N)N)C(=O)N[C@H](Cc1ccccc1)C(=O)N[C@H](C(N)=O)C(C)C [listing 2 of 2 here]
33.9 | – | CC[C@H](C)[C@H](NC(=O)[C@@H](Cc1ccccc1)NC(=O)[C@@H](Cc1c[nH]c2ccccc12)NC(=O)[C@@H](N)CCCN=C(N)N)C(=O)N[C@H](Cc1ccccc1)C(=O)NCC(N)=O [listing 2 of 2 here]

Continued, compound first:

Compound | IC50 (Candida albicans) [µM] | MIC (Cryptococcus neoformans) [µM]
CC[C@H](C)[C@H](NC(=O)[C@@H](Cc1ccccc1)NC(=O)[C@@H](Cc1c[nH]c2ccccc12)NC(=O)[C@@H](N)CCCN=C(N)N)C(=O)N[C@H](Cc1ccccc1)C(=O)N[C@@H](CC(N)=O)C(N)=O [listing 1 of 2 here] | – | 14.2 (≈ 12.5 µg/mL)
CC[C@H](C)[C@H](NC(=O)[C@@H](Cc1ccccc1)NC(=O)[C@@H](Cc1c[nH]c2ccccc12)NC(=O)[C@@H](N)CCCN=C(N)N)C(=O)N[C@H](Cc1ccccc1)C(=O)N[C@@H](CO)C(N)=O [listing 1 of 2 here] | – | 14.6 (≈ 12.5 µg/mL)
CC[C@H](C)[C@H](NC(=O)[C@@H](Cc1ccccc1)NC(=O)[C@@H](Cc1c[nH]c2ccccc12)NC(=O)[C@@H](N)CCCN=C(N)N)C(=O)N[C@H](Cc1ccccc1)C(=O)NCC(N)=O [listing 1 of 2 here] | – | 15.2 (≈ 12.5 µg/mL)
CC[C@H](C)[C@H](NC(=O)[C@@H](Cc1ccccc1)NC(=O)[C@@H](Cc1c[nH]c2ccccc12)NC(=O)[C@@H](N)CCCN=C(N)N)C(=O)N[C@H](Cc1ccccc1)C(=O)N[C@@H](Cc1c[nH]cn1)C(N)=O (H-R[dW][dF]I[dF]H-NH2) [listing 1 of 2 here] | 6.85 | –
CC[C@H](C)[C@H](NC(=O)[C@@H](Cc1ccccc1)NC(=O)[C@@H](Cc1c[nH]c2ccccc12)NC(=O)[C@@H](N)CCCN=C(N)N)C(=O)N[C@H](Cc1ccccc1)C(=O)N[C@@H](Cc1c[nH]c2ccccc12)C(N)=O [listing 1 of 2 here] | 25.4 | –
CC[C@H](C)[C@H](NC(=O)[C@@H](Cc1ccccc1)NC(=O)[C@@H](Cc1c[nH]c2ccccc12)NC(=O)[C@@H](N)CCCN=C(N)N)C(=O)N[C@H](Cc1ccccc1)C(=O)N[C@@H](CC(=O)O)C(N)=O [listing 1 of 2 here] | – | 113 (≈ 100 µg/mL)
CC[C@H](C)[C@H](NC(=O)[C@@H](Cc1ccccc1)NC(=O)[C@@H](Cc1c[nH]c2ccccc12)NC(=O)[C@@H](N)CCCN=C(N)N)C(=O)N[C@H](Cc1ccccc1)C(=O)N[C@@H](CC(C)C)C(N)=O [listing 1 of 2 here] | 14.9 | –
NCCCC[C@H](NC(=O)[C@@H](Cc1ccccc1)NC(=O)[C@H](Cc1ccccc1)NC(=O)[C@@H](Cc1ccccc1)NC(=O)[C@@H](Cc1c[nH]c2ccccc12)NC(=O)[C@@H](N)Cc1c[nH]cn1)C(N)=O (H-H[dW][dF]F[dF]K-NH2) | 28.6 | 6.81 (≈ 6.2 µg/mL)
CC[C@H](C)[C@H](NC(=O)[C@@H](Cc1ccccc1)NC(=O)[C@@H](Cc1c[nH]c2ccccc12)NC(=O)[C@@H](N)CCCN=C(N)N)C(=O)N[C@H](Cc1ccccc1)C(=O)N[C@@H](Cc1ccc(O)cc1)C(N)=O [listing 1 of 2 here] | 15.9 | –
CC[C@H](C)[C@H](NC(=O)[C@@H](Cc1ccccc1)NC(=O)[C@@H](Cc1c[nH]c2ccccc12)NC(=O)[C@@H](N)CCCN=C(N)N)C(=O)N[C@H](Cc1ccccc1)C(=O)N1CCC[C@H]1C(N)=O [listing 1 of 2 here] | – | 28.9 (≈ 25 µg/mL)
CC[C@H](C)[C@H](NC(=O)[C@@H](Cc1ccccc1)NC(=O)[C@@H](Cc1c[nH]c2ccccc12)NC(=O)[C@@H](N)CCCN=C(N)N)C(=O)N[C@H](Cc1ccccc1)C(=O)N[C@@H](CO)C(N)=O [listing 2 of 2 here] | > 14.9 | –
CC[C@H](C)[C@H](NC(=O)[C@@H](Cc1ccccc1)NC(=O)[C@@H](Cc1c[nH]c2ccccc12)NC(=O)[C@@H](N)CCCN=C(N)N)C(=O)N[C@H](Cc1ccccc1)C(=O)N[C@@H](CCSC)C(N)=O [listing 1 of 2 here] | 24.5 | –
CC[C@H](C)[C@H](NC(=O)[C@@H](Cc1ccccc1)NC(=O)[C@@H](NC(=O)[C@@H](Cc1ccccc1)NC(=O)[C@@H](Cc1c[nH]c2ccccc12)NC(=O)[C@@H](N)CCCN=C(N)N)[C@@H](C)CC)C(N)=O [listing 2 of 2 here] | – | 28.4 (≈ 25 µg/mL)
CC[C@H](C)[C@H](NC(=O)[C@@H](Cc1ccccc1)NC(=O)[C@@H](Cc1c[nH]c2ccccc12)NC(=O)[C@@H](N)CCCN=C(N)N)C(=O)N[C@H](Cc1ccccc1)C(=O)N[C@@H](CC(=O)O)C(N)=O [listing 2 of 2 here] | > 14.9 | –
CC[C@H](C)[C@H](NC(=O)[C@@H](Cc1ccccc1)NC(=O)[C@@H](Cc1c[nH]c2ccccc12)NC(=O)[C@@H](N)CCCN=C(N)N)C(=O)N[C@H](Cc1ccccc1)C(=O)N[C@@H](CCCN=C(N)N)C(N)=O [listing 2 of 2 here] | > 12.5 | –
CC[C@H](C)[C@H](NC(=O)[C@@H](Cc1ccccc1)NC(=O)[C@@H](Cc1c[nH]c2ccccc12)NC(=O)[C@@H](N)CCCN=C(N)N)C(=O)N[C@H](Cc1ccccc1)C(=O)N[C@H](C(N)=O)[C@@H](C)O [listing 2 of 2 here] | > 14.9 | –
CC[C@H](C)[C@H](NC(=O)[C@@H](Cc1ccccc1)NC(=O)[C@@H](Cc1c[nH]c2ccccc12)NC(=O)[C@@H](N)CCCN=C(N)N)C(=O)N[C@H](Cc1ccccc1)C(=O)N[C@@H](CCC(=O)O)C(N)=O [listing 2 of 2 here] | > 28.4 | –

— ChEMBL document CHEMBL1133032, “Combinatorial approach to lead optimization of a novel hexapeptide with antifungal activity” (Bioorg Med Chem Lett, 2000)
